In PMC3551932, “STK295900, a Dual Inhibitor of Topoisomerase 1 and 2, Induces G2 Arrest in the Absence of DNA Damage” (PLoS ONE, 2013):

How the values were obtained:
HT-29 cells = experiment: Cell growth inhibition assay, HT-29; assay type: cell-based, human; settings: Homo sapiens, HT-29, 96 h, growth up to 4 days
Excerpt: (§1) Human epitheloid cervical carcinoma HeLa cells, human breast adenocarcinoma MCF7 and MDA-MB-231cells, human hepatocellular carcinoma HepG2 cells, human colon adenocarcinoma HT-29 cells, and human colorectal carcinoma HCT-116 cells were purchased from ATCC® and maintained in DMEM medium. Human prostate carcinoma PC-3 cells (purchased from ATCC®), human gastric carcinoma SNU-484 and SNU-601(obtained from Korean Cell Line Bank (KCLB)), human leukemia K-562 and HL-60 cells (purchased from ATCC®), immortalized human prostate epithelial 267B1cells, and immortalized human embryonic lung fibroblast MRC5CV1 cells were maintained in RPMI 1640 medium whereas immortalized retinal pigment epithelial hTERT RPE-1 cells (purchased from ATCC®) were maintained in DMEM/F12 medium. All cell lines were cultured in media supplemented with 10% fetal bovine serum, 100 U/ml penicillin, and […] streptomycin at 37°C in a 5% CO2 incubator.
(§2) Cells were seeded at the appropriate amount (1–2×10^3 cells) in triplicate in 96-well plates for 24 h and then treated with various concentrations of STK295900. Cell growth was determined by using EZ-CyTox cell viability assay kit (Daeil Lab. Service, Seoul, Korea). Ten microliters of WST solution were added to the treated cells at 24, 48, 72, and 96 h. Cells were further incubated at 37°C for 2 h and the absorbance was measured at 450 nm.

HCT-116 cells = experiment: Cell growth inhibition assay, HCT-116; assay type: cell-based; settings: Homo sapiens, 96 h, Table 1, growth up to 4 days
Excerpt: as §1, §2

HL-60 cells = experiment: Cell growth inhibition assay, HL-60; assay type: cell-based; settings: Homo sapiens, 96 h; Table 1; HL-60, leukemia; growth up to 4 days
Excerpt: as §1, §2

K-562 cells = experiment: Cell growth inhibition assay, K-562; assay type: cell-based; settings: Homo sapiens, K562, 96 h; Table 1; K-562, leukemia; growth up to 4 days
Excerpt: as §1, §2

PC-3 cells = experiment: Cell growth inhibition assay, PC-3; assay type: cell-based; settings: Homo sapiens, 96 h; Table 1; PC-3, prostate carcinoma; growth up to 4 days
Excerpt: as §1, §2

SNU-601 cells = experiment: Cell growth inhibition assay, SNU-601; assay type: cell-based; settings: Homo sapiens, 96 h; Table 1; SNU-601, gastric carcinoma; growth up to 4 days
Excerpt: as §1, §2

hTERT RPE-1 cells = experiment: Cell growth inhibition assay, hTERT RPE-1; assay type: cell-based, human; settings: Homo sapiens, hTERT-RPE1, 96 h; Table 2 comparison; hTERT RPE-1, non-cancer; growth up to 4 days
Excerpt: as §1, §2

267B1 cells = experiment: Cell growth inhibition assay, 267B1; assay type: cell-based, human; settings: Homo sapiens, 96 h; Table 2 comparison; 267B1, non-cancer; growth up to 4 days
Excerpt: as §1, §2

HeLa cells = experiment: Immunoblot of cell cycle and DNA damage checkpoint proteins; assay type: cell-based, human; settings: 24 h, STK295900 1 or 5 µM, camptothecin 10 µM, etoposide 10 µM
Protocol: Cells were lysed with cold RIPA buffer (50 mM Tris-HCl pH 8.0, 150 mM NaCl, 1% NP-40, 0.5% sodium deoxycholate, 0.1% SDS) containing freshly added protease inhibitor, phosphatase inhibitor (SIGMA), 1 mM DTT, and 1 mM Na3VO4 on ice for 1 h. Whole cell lysates were centrifuged at 15,000 rpm for 20 min and then the supernatant was transferred into a new tube. An appropriate amount of cell lysate was subjected to SDS-PAGE. Then the resolved proteins were transferred onto a PVDF membrane (Bio-Rad) for immunoblot analyses with specific antibodies. The proteins were detected using chemiluminescence solution (Thermo Scientific, Rockford, IL).
(A) Flow cytometric analysis for cell cycle distribution. HeLa cells were treated with the indicated concentrations of STK295900 for 24 h. Treated cells were then stained with propidium iodide (PI) and processed for cell cycle analysis. The bar graph represents the mean percentage of each cell cycle phase ± SD from three independent experiments. * = p<0.05 versus the respective G1, S, or G2/M phase of DMSO-treated cells. (B) Mitotic index of STK295900. HeLa cells were treated with the indicated concentrations of STK295900 for 24 h. Cells were then stained with Hoechst 33342 and mitotic cells were counted. […] (C) Cell cycle related proteins expression. […] Treated cells were lysed and subjected to immunoblot analyses with antibodies against cyclin A, cyclin B1, phospho-Histone H3 (S10), and Histone H3. β-actin was used as a loading control.
(A) G2/M transition regulated proteins expression. […] GAPDH was used as a loading control. (B) DNA damage-checkpoint related proteins. […] Images were analyzed on a fluorescence microscope.

[1] = biological target: T1, calf thymus topoisomerase 1 (Bos taurus, UniProt F1MN93); experiment: Supercoiled DNA relaxation assay for topoisomerase 1; assay type: biochemical
T1 construct: purified calf thymus topoisomerase 1; purchased Takara Bio, Shiga, Japan; host or cells: calf thymus (tissue-purified)
T1 sequence (F1MN93 1-767): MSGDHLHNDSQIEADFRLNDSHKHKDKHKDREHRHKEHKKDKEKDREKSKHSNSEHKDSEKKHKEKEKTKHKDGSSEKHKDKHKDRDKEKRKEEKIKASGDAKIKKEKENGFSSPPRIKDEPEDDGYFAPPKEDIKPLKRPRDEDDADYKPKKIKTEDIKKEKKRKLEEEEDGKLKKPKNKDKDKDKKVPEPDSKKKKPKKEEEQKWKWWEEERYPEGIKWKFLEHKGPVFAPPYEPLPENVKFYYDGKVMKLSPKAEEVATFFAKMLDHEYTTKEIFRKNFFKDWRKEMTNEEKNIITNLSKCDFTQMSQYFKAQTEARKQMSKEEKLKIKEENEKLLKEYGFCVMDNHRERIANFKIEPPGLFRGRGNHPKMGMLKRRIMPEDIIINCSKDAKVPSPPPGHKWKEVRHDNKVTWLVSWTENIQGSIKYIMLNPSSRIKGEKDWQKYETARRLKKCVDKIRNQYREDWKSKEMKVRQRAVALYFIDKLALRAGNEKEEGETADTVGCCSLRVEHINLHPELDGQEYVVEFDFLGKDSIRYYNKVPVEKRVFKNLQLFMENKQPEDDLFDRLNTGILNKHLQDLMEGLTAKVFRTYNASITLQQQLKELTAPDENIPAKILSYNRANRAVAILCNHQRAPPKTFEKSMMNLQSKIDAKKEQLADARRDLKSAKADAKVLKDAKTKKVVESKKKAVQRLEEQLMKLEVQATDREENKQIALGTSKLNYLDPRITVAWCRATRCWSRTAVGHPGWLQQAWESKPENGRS

DNA gyrase = settings: targeting DNA gyrase; cited from earlier work

## Nc1ccc(-c2nc3ccc(-c4ccc5nc(-c6ccc(N)cc6)[nH]c5c4)cc3[nH]2)cc1 [STK295900, 4,4′-(3H,3′H-5,5′-bibenzimidazole-2,2′-diyl)dianiline]
HT-29 cells; Table 1, HT-29, colon adenocarcinoma
  IC50: 270 nM
HT-29 cells; Table 2 comparison, HT-29
  IC50: 210 nM
HCT-116 cells
  IC50: 2830 nM
HL-60 cells
  IC50: 500 nM
K-562 cells
  IC50: 1380 nM
PC-3 cells
  IC50: 2720 nM
SNU-601 cells
  IC50: 2210 nM
hTERT RPE-1 cells
  IC50: 3.43 µM
267B1 cells
  IC50: 1610 nM
HeLa cells
  p53 and p21 levels: did not induce upregulation of p53 but marginally affected p21 level
  phosphorylation-dependent activation of ATM (S1981), ATR (S428), Chk1 (S345), and Chk2 (T68): no increase in phosphorylations of ATM, ATR, Chk1, and Chk1
HeLa cells; nocodazole 200 ng/ml
  Phosphorylation of Cdk1 at T161: dose-dependent increase
  Wee1 and Cdc25C levels: no change in Wee1 and Cdc25C levels
  cyclin A and cyclin B1 levels: accumulations of cyclin A and cyclin B1
  inhibitory phosphorylation of Cdk1 (T14 and Y15): dose-dependent increase
[1]; high concentrations (50 and 100 µM)
  supercoiled DNA at high concentrations (Top 1 catalytic activity): supercoiled DNA could be observed
[1]; pBR322, 37°C, 30 min, various concentrations
  Top 1-mediated DNA relaxation: inhibited DNA relaxation activity of Top 1 in a dose-dependent manner
DNA gyrase
  anti-staphylococcal activity: potent anti-staphylococcal agent
